Common to all, as to format: in vivo
Assay [1] concerns Ipomea hederaceae (IPOHE). Kind of assay: Post-emergence biological efficacy, glasshouse pot test. To be noted: Ipomoea hederacea, 312 h; post-emergence, 1,000 g/ha, evaluated after 13 days (100=total damage; 0=no damage); read-out: Percentage damage caused to weed species, IPOHE. In short, it runs like this:
(§1)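 Pot-grown weeds were sprayed 8 days after sowing with test compound in acetone/water (50:50) with 0.5% Tween 20 at 1000 or 250 g/ha. Glasshouse at 24/16° C day/night, 14 h light, 65% humidity. Damage scored 0-100 (100 = total damage) after 13 days.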

Assay [2] concerns Amaranthus retoflexus (AMARE). The description is as above. Particulars: Amaranthus retroflexus, 312 h; post-emergence, 1,000 g/ha, evaluated after 13 days (100=total damage; 0=no damage); read-out: Percentage damage caused to weed species, AMARE. In short, it runs like this:
as §1

The test system of assay [3] is Solanum nigrum (SOLNI). The description is as above. Particulars: 312 h, post-emergence, 1,000 g/ha, evaluated after 13 days (100=total damage; 0=no damage), read-out: Percentage damage caused to weed species, SOLNI. The method in brief: as §1
In assay [4] the test system is Setaria faberi (SETFA). The description is as above. Particulars: 312 h, post-emergence, 1,000 g/ha, evaluated after 13 days (100=total damage; 0=no damage), read-out: Percentage damage caused to weed species, SETFA. In short, it runs like this: as §1
Assay [5] deals with Alopecurus myosuroides (ALOMY). The description is as above. To be noted: 312 h, post-emergence, 1,000 g/ha, evaluated after 13 days (100=total damage; 0=no damage), read-out: Percentage damage caused to weed species, ALOMY. In short, it runs like this: as §1
For assay [6], the system named is Echinochloa crus-galli (ECHCG). Described as above. To be noted: 312 h, post-emergence, 1,000 g/ha, evaluated after 13 days (100=total damage; 0=no damage), read-out: Percentage damage caused to weed species, ECHCG. The method in brief:
as §1

For assay [7], the system named is Ipomea hederaceae (IPOHE). Kind of assay: Pre-emergence biological efficacy, glasshouse pot test. To be noted: Ipomoea hederacea, 312 h; pre-emergence, 1,000 g/ha, evaluated after 13 days (100=total damage; 0=no damage); read-out: Percentage damage IPOHE. In short, it runs like this: (§2)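 One day after sowing in standard soil, pots were sprayed with compound in acetone/water (50:50) with 0.5% Tween 20, at 1000 or 250 g/ha. Plants grew at 24/16° C day/night, 14 h light, 65% humidity. Damage was scored after 13 days (0 = none, 100 = total).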

Assay [8] relates to Amaranthus retoflexus (AMARE). The assay is described as above. Particulars: Amaranthus retroflexus, 312 h; pre-emergence, 1,000 g/ha, evaluated after 13 days (100=total damage; 0=no damage); read-out: Percentage damage AMARE. In short, it runs like this: as §2
The test system of assay [9] is Solanum nigrum (SOLNI). The description is as above. To be noted: 312 h, pre-emergence, 1,000 g/ha, evaluated after 13 days (100=total damage; 0=no damage), read-out: Percentage damage SOLNI. The method in brief:
as §2

Assay [10] relates to Setaria faberi (SETFA). The description is as above. To be noted: 312 h, pre-emergence, 1,000 g/ha, evaluated after 13 days (100=total damage; 0=no damage), read-out: Percentage damage SETFA. The method in brief: as §2
Assay [11] relates to Alopecurus myosuroides (ALOMY). The description is as above. Particulars: 312 h, pre-emergence, 1,000 g/ha, evaluated after 13 days (100=total damage; 0=no damage), read-out: Percentage damage ALOMY. The method in brief:
as §2

Assay [12] deals with Echinochloa crus-galli (ECHCG). Described as above. To be noted: 312 h, pre-emergence, 1,000 g/ha, evaluated after 13 days (100=total damage; 0=no damage), read-out: Percentage damage ECHCG. The method in brief: as §2

Regarding `COC(=O)c1nc(C2CC2)nc(NCc2ccsc2Br)c1Cl` [Compound 4-143, 4-(2-Bromothiophen-3-ylmethylamino)-5-chloro-2-cyclopropyl-6-methoxycarbonyl-pyrimidine], the pest or weed control at 1000 g/ha turned out to be 100% in [1]; 90% in assay [2]; 90% in assay [3]; 70% in [4]; 20% in assay [5]; 60% in assay [6]. The pest or weed control at 1000 g/ha in [7] came out at 80%; in assay [8], 70%; in [9], 50%; in assay [10] it was 0%; in [11], 0%; in assay [12], 20%.

For the compound `COC(=O)c1nc(C2CC2)nc(NCc2cnc(Cl)s2)c1Cl` [Compound 4-146, 5-Chloro-4-(2-chlorothiazol-5-ylmethylamino)-2-cyclopropyl-6-methoxycarbonyl-pyrimidine], the pest or weed control at 1000 g/ha was 80% in assay [1]; 90% in assay [2]; 90% in assay [3]; 70% in assay [4]; 20% in [5]; 50% in assay [6]. The pest or weed control at 1000 g/ha was 100% in [7]; 70% in assay [8]; 40% in [9]; 0% in [10]; 50% in assay [11]; 50% in assay [12].

As for `COC(=O)c1nc(C2CC2)nc(NCc2ncco2)c1Cl` [Compound 4-148, 5-Chloro-2-cyclopropyl-6-methoxycarbonyl-4-(oxazol-2-ylmethylamino)-pyrimidine], the pest or weed control at 1000 g/ha in assay [1] was 60%; in [2] it was 100%; in [3] it was 80%; in assay [4], 50%; in assay [5], 20%; in assay [6], 40%. Also, the pest or weed control at 1000 g/ha came out at 100% in [7]; 80% in assay [8]; 90% in assay [9]; 20% in [10]; 20% in assay [11]; 30% in assay [12].

Turning to `COC(=O)c1nc(C2CC2)nc(NCc2ccccn2)c1Cl` [Compound 4-151, 5-Chloro-2-cyclopropyl-6-methoxycarbonyl-4-(pyrid-2-yl-methylamino)-pyrimidine], the pest or weed control at 1000 g/ha came to 80% in [1]; 100% in assay [2]; 80% in assay [3]; 80% in assay [4]; 60% in [5]; 80% in assay [6]. Also, the pest or weed control at 1000 g/ha is 90% in [7]; 100% in [8]; 90% in assay [9]; 50% in [10]; 40% in assay [11]; 60% in assay [12].

In the case of `COC(=O)c1nc(C2CC2)nc(NCc2ncccc2Cl)c1Cl` [Compound 4-152, 5-Chloro-4-(3-chloropyrid-2-ylmethylamino)-2-cyclopropyl-6-methoxycarbonyl-pyrimidine], the pest or weed control at 1000 g/ha was 100% in assay [1]; 100% in assay [2]; 90% in assay [3]; 90% in assay [4]; 50% in assay [5]; 80% in [6]. Besides, the pest or weed control at 1000 g/ha in assay [7] was 100%; in assay [8], 70%; in [9], 80%; in assay [10], 40%; in [11], 20%; in assay [12], 70%.

Regarding `COC(=O)c1nc(C2CC2)nc(NCc2ncccc2C)c1Cl` [Compound 4-153, 5-Chloro-2-cyclopropyl-6-methoxycarbonyl-4-(3-methylpyrid-2-ylmethylamino)-pyrimidine], the pest or weed control at 1000 g/ha amounted to 100% in assay [1]; 100% in [2]; 100% in assay [3]; 90% in [4]; 70% in [5]; 80% in assay [6]. Besides, the pest or weed control at 1000 g/ha in [7] came to 100%; in assay [8] it was 100%; in [9], 100%; in [10] it was 60%; in [11] it was 50%; in assay [12] it was 60%.

Regarding `COC(=O)c1nc(C2CC2)nc(NCc2ncc(C(F)(F)F)cc2Cl)c1Cl` [Compound 4-155, 5-Chloro-4-(3-chloro-5-trifluoromethylpyrid-2-ylmethylamino)-2-cyclopropyl-6-methoxycarbonyl-pyrimidine], the pest or weed control at 1000 g/ha in assay [1] is 90%; in assay [2], 100%; in assay [3] it was 90%; in [4], 70%; in assay [5] it was 30%; in assay [6], 70%. The pest or weed control at 1000 g/ha in [7] is 90%; in [8], 90%; in assay [9], 70%; in [10], 20%; in assay [11], 20%; in assay [12], 80%.

Take `COC(=O)c1nc(C2CC2)nc(NCc2cccnc2)c1Cl` [Compound 4-156, 5-Chloro-2-cyclopropyl-6-methoxycarbonyl-4-(pyrid-3-ylmethyl-amino)pyrimidine]: the pest or weed control at 1000 g/ha is 70% in assay [1]; 100% in [2]; 90% in assay [3]; 70% in assay [4]; 30% in [5]; 50% in assay [6]. In addition, the pest or weed control at 1000 g/ha came to 80% in assay [7]; 50% in assay [8]; 30% in assay [9]; 0% in assay [10]; 0% in [11]; 0% in assay [12].

Consider `COC(=O)c1nc(C2CC2)nc(NCc2ccc(C(F)(F)F)nc2)c1Cl` [Compound 4-159, 5-Chloro-2-cyclopropyl-6-methoxycarbonyl-4-(2-trifluoromethyl-pyrid-5-yl-methyl-amino)-pyrimidine], for which the pest or weed control at 1000 g/ha in assay [1] came to 80%; in assay [2], 90%; in [3] it was 80%; in assay [4] it was 70%; in assay [5], 30%; in assay [6] it was 80%. For the same compound, the pest or weed control at 1000 g/ha in assay [7] came out at 70%; in assay [8], 0%; in assay [9], 20%; in assay [10] it was 0%; in assay [11], 10%; in assay [12] it was 30%.

Source of the values: US20110086759A1, “CHEMICAL COMPOUNDS” (SYNGENTA CROP PROTECTION, INC., priority 2007, published 2011).
